Earlier results as cited in patent publication US20210368800A1, “Quickly, easily, and economically creating and maintaining a low bio-load on surfaces that may be large and/or of complex contour and finish” (priority 2020, published 2021).

Key:
norovirus = conditions: at 50 ppm; electrolytically generated hypochlorous acid

SMILES: OCl [hypochlorous acid, Hypochlorous Acid]
- time to kill norovirus (norovirus): less than one
- effective in eliminating coronavirus 0C43 (coronavirus 0C43): more than 99.999%
